Results published in PubChem BioAssay AID330 (DTP/NCI, 2004).
“And” between values parts separate entries of the source, which are not always exact repeats. Identical values can stand only once. Inconclusive results and toxic doses are left out.

System: P388 leukemia ip, CD2F1 mice, survival T/C
Experiment: NCI In Vivo Anticancer Drug Screen. Data for tumor model P388 Leukemia (intraperitoneal) in CD2F1 (CDF1) mice
Settings: endpoint: median survival time, higher = longer survival
In short: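 Mice carrying the transplanted tumor received test compound or vehicle. Survival was recorded in each group, and the value is the treated-group measurement divided by that of the vehicle-treated control group.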

[1] = dose: 50.0 mg/kg/injection, schedule: Q01DX005 (ip), vehicle: Klucel (hydroxypropylcellulose) (HPC)
[2] = dose: 100.0 mg/kg/injection, schedule: Q01DX005 (ip), vehicle: Klucel (hydroxypropylcellulose) (HPC)
[3] = dose: 200.0 mg/kg/injection, schedule: Q01DX005 (ip), vehicle: Klucel (hydroxypropylcellulose) (HPC)
[4] = dose: 100.0 mg/kg/injection, schedule: Q04DX002 (ip), vehicle: saline with Tween-80
[5] = dose: 200.0 mg/kg/injection, schedule: Q04DX002 (ip), vehicle: saline with Tween-80
[6] = dose: 400.0 mg/kg/injection, schedule: Q04DX002 (ip), vehicle: saline with Tween-80
[7] = dose: 6.25 mg/kg/injection, schedule: Q01DX009 (ip), vehicle: saline with Tween-80
[8] = dose: 12.5 mg/kg/injection, schedule: Q01DX009 (ip), vehicle: saline with Tween-80
[9] = dose: 25.0 mg/kg/injection, schedule: Q01DX009 (ip), vehicle: saline with Tween-80
[10] = dose: 50.0 mg/kg/injection, schedule: Q01DX009 (ip), vehicle: saline with Tween-80
[11] = dose: 25.0 mg/kg/injection, schedule: Q04DX002 (ip), vehicle: saline
[12] = dose: 12.5 mg/kg/injection, schedule: Q01DX009 (ip), vehicle: saline
[13] = dose: 50.0 mg/kg/injection, schedule: Q01DX009 (ip), vehicle: saline
[14] = dose: 60.0 mg/kg/injection, schedule: Q01DX005 (ip), vehicle: saline with Tween-80
[15] = dose: 120.0 mg/kg/injection, schedule: Q01DX005 (ip), vehicle: saline with Tween-80
[16] = dose: 240.0 mg/kg/injection, schedule: Q01DX005 (ip), vehicle: saline with Tween-80
[17] = dose: 50.0 mg/kg/injection, schedule: Q01DX009 (ip), vehicle: Klucel (hydroxypropylcellulose) (HPC)
[18] = dose: 100.0 mg/kg/injection, schedule: Q01DX009 (ip), vehicle: Klucel (hydroxypropylcellulose) (HPC)
[19] = dose: 200.0 mg/kg/injection, schedule: Q01DX009 (ip), vehicle: Klucel (hydroxypropylcellulose) (HPC)
[20] = dose: 50.0 mg/kg/injection, schedule: Q01DX005 (ip), vehicle: saline
[21] = dose: 100.0 mg/kg/injection, schedule: Q01DX005 (ip), vehicle: saline
[22] = dose: 100.0 mg/kg/injection, schedule: Q01DX009 (ip), vehicle: saline
[23] = dose: 200.0 mg/kg/injection, schedule: Q01DX009 (ip), vehicle: saline
[24] = dose: 100.0 mg/kg/injection, schedule: Q01DX001 (ip), vehicle: saline
[25] = dose: 200.0 mg/kg/injection, schedule: Q01DX001 (ip), vehicle: saline
[26] = dose: 400.0 mg/kg/injection, schedule: Q01DX001 (ip), vehicle: saline
[27] = dose: 100.0 mg/kg/injection, schedule: Q01DX009 (ip), vehicle: saline with Tween-80
[28] = dose: 200.0 mg/kg/injection, schedule: Q01DX009 (ip), vehicle: saline with Tween-80
[29] = dose: 25.0 mg/kg/injection, schedule: Q01DX005 (ip), vehicle: Klucel (hydroxypropylcellulose) (HPC)

ON=C1CCCCCCC1
T/C (dose: 50.0 mg/kg/injection, schedule: Q01DX009 (ip), vehicle: suspension in saline): 97 % of control
T/C (dose: 100.0 mg/kg/injection, schedule: Q01DX009 (ip), vehicle: suspension in saline): 104 % of control
T/C (dose: 200.0 mg/kg/injection, schedule: Q01DX009 (ip), vehicle: suspension in saline): 103 % of control
T/C (dose: 400.0 mg/kg/injection, schedule: Q01DX009 (ip), vehicle: suspension in saline): 98 % of control

O=C1CCC(=O)N1CCCCCCN1C(=O)CCC1=O
T/C [1]: 90 % of control
T/C [2]: 99 % of control
T/C [3]: 98 % of control
T/C (dose: 400.0 mg/kg/injection, schedule: Q01DX005 (ip), vehicle: Klucel (hydroxypropylcellulose) (HPC)): 89 % of control

C=COC(=O)C(Cc1cc(OC)c(OC)c(OC)c1)NC(=O)OCc1ccccc1 (stereo not given)
T/C [4]: 102 % of control
T/C [5]: 101 % of control
T/C [6]: 96 % of control

c1ccc(-c2nc3ccccc3nc2-c2ccc(-c3ccc(-c4nc5ccccc5nc4-c4ccccc4)cc3)cc2)cc1
T/C [7]: 88 % of control and 96 % of control
T/C [8]: 101 % of control and 90 % of control
T/C [9]: 99 % of control and 120 % of control and 92 % of control
T/C [10]: 114 % of control and 87 % of control

O=C(NC1CCCCC1)C(O)C(O)C(O)C(O)CO (stereo not given)
T/C [1]: 107 % of control
T/C [2]: 107 % of control
T/C [3]: 104 % of control

CCN=C1SC2C(=O)N(C)C(S1)C(=O)N2C
T/C (dose: 6.25 mg/kg/injection, schedule: Q04DX002 (ip), vehicle: saline): 100 % of control
T/C (dose: 12.5 mg/kg/injection, schedule: Q04DX002 (ip), vehicle: saline): 103 % of control
T/C [11]: 105 % of control

CCCCCCCCCCCCCC[N+]1([O-])CCOCC1
T/C [11]: 104 % of control
T/C (dose: 50.0 mg/kg/injection, schedule: Q04DX002 (ip), vehicle: saline): 104 % of control
T/C (dose: 100.0 mg/kg/injection, schedule: Q04DX002 (ip), vehicle: saline): 104 % of control and 94 % of control

COC(=O)CCSC(=O)NS(=O)(=O)c1ccc(C)cc1
T/C [1]: 104 % of control
T/C [2]: 102 % of control
T/C [3]: 104 % of control

COc1ccc(Cc2nccc3cc(OC)c(OC)cc23)cc1OC
T/C [12]: 104 % of control
T/C [13]: 109 % of control

Cn1c(=O)c2c(nc(CCCCc3nc4c(c(=O)n(C)c(=O)n4C)n3C)n2C)n(C)c1=O
T/C (dose: 1.56 mg/kg/injection, schedule: Q01DX009 (ip), vehicle: saline with Tween-80): 87 % of control
T/C (dose: 3.13 mg/kg/injection, schedule: Q01DX009 (ip), vehicle: saline with Tween-80): 89 % of control
T/C [7]: 88 % of control
T/C [10]: 86 % of control

CSc1nc(NC2OC(CO)C(O)C(O)C2O)c(C=O)c(=O)[nH]1 (stereo not given)
T/C [14]: 92 % of control
T/C [15]: 95 % of control
T/C [16]: 87 % of control

Nc1[nH]c(=O)[nH]c(=O)c1S(=O)(=O)O
T/C [17]: 95 % of control
T/C [18]: 90 % of control
T/C [19]: 95 % of control

CCCCCCCCCCCCNc1ccc(Cl)cc1
T/C [17]: 117 % of control and 123 % of control
T/C [18]: 103 % of control and 113 % of control
T/C [19]: 117 % of control

CC(C)CCC1(CCCl)C(=O)NC(=O)NC1=O
T/C [1]: 102 % of control
T/C [2]: 106 % of control

CC(NNC(=S)N1CCCCCC1)c1ccc2ccccc2n1 (stereo not given)
T/C [1]: 111 % of control
T/C [2]: 110 % of control and 122 % of control and 95 % of control
T/C [3]: 112 % of control and 113 % of control

c1cc[n+](-[b-]2ccc3ccccc3c2)cc1
T/C (dose: 100.0 mg/kg/injection, schedule: Q01DX001 (ip), vehicle: saline with Tween-80): 94 % of control
T/C (dose: 200.0 mg/kg/injection, schedule: Q01DX001 (ip), vehicle: saline with Tween-80): 108 % of control
T/C (dose: 400.0 mg/kg/injection, schedule: Q01DX001 (ip), vehicle: saline with Tween-80): 99 % of control

C[Si](C)(C)N=S=N[Si](C)(C)C
T/C (dose: 50.0 mg/kg/injection, schedule: Q01DX005 (ip), vehicle: saline with Tween-80): 101 % of control
T/C (dose: 100.0 mg/kg/injection, schedule: Q01DX005 (ip), vehicle: saline with Tween-80): 108 % of control

c1ccc2c(c1)ccc1ncc3ncccc3c12
T/C [4]: 98 % of control
T/C [5]: 114 % of control

c1ccc2c(c1)C1OC2c2cnccc21 (stereo not given)
T/C [4]: 95 % of control
T/C [5]: 96 % of control
T/C [6]: 93 % of control

CN(C)c1nc(=O)c2c(ccc3ccccc32)o1
T/C [14]: 97 % of control
T/C [15]: 104 % of control
T/C [16]: 101 % of control

CN1CCCC1=NCCN=C1CCCN1C
T/C [20]: 117 % of control
T/C [21]: 99 % of control
T/C (dose: 200.0 mg/kg/injection, schedule: Q01DX005 (ip), vehicle: saline): 98 % of control

CC(=O)C1=CN(Cc2ccccc2)C=C(C)C1
T/C [13]: 99 % of control
T/C [22]: 96 % of control
T/C [23]: 96 % of control

Nc1ncnc2nc(-c3ccc(OCc4ccccc4)cc3)[nH]c12
T/C [24]: 101 % of control
T/C [25]: 94 % of control
T/C [26]: 98 % of control

CCCOP(=S)(N1CC1(C)C)N1CC1(C)C (stereo not given)
T/C [8]: 104 % of control
T/C [9]: 113 % of control
T/C (dose: 150.0 mg/kg/injection, schedule: Q01DX009 (ip), vehicle: saline with Tween-80): 155 % of control

COc1cc2cc(-c3ccc(Cl)c(Cl)c3)[n+](C)cc2cc1OC
T/C [12]: 106 % of control
T/C (dose: 25.0 mg/kg/injection, schedule: Q01DX009 (ip), vehicle: saline): 94 % of control
T/C [13]: 98 % of control

CCOCC1COc2c(cc3[nH]cc(C(=O)O)c(=O)c3c2Cl)O1 (stereo not given)
T/C [10]: 95 % of control
T/C [27]: 93 % of control
T/C [28]: 95 % of control

O=C(c1ccc(-c2ccccc2)cc1)C1(Br)CCCCC1
T/C [27]: 100 % of control
T/C [28]: 100 % of control
T/C (dose: 400.0 mg/kg/injection, schedule: Q01DX009 (ip), vehicle: saline with Tween-80): 100 % of control

COc1cc(C)c(/C=C/C(C)=C/c2cc(C)cc(=O)o2)c(C)c1C
T/C [29]: 86 % of control
T/C [1]: 88 % of control
T/C [2]: 86 % of control and 92 % of control

Cc1ncc(-c2ccccc2)c(N)n1
T/C [13]: 91 % of control
T/C [22]: 92 % of control
T/C [23]: 102 % of control

O=C(Nc1cccc(Cl)c1)Nn1cnnc1
T/C [13]: 101 % of control
T/C [22]: 97 % of control
T/C [23]: 91 % of control

CC(=O)CC(c1ccccc1)C(C#N)c1ccccc1 (stereo not given)
T/C (dose: 12.5 mg/kg/injection, schedule: Q04DX003 (ip), vehicle: Klucel (hydroxypropylcellulose) (HPC)): 118 % of control
T/C (dose: 25.0 mg/kg/injection, schedule: Q04DX003 (ip), vehicle: Klucel (hydroxypropylcellulose) (HPC)): 106 % of control
T/C (dose: 50.0 mg/kg/injection, schedule: Q04DX003 (ip), vehicle: Klucel (hydroxypropylcellulose) (HPC)): 106 % of control

C/C=C/C(=O)OCC1CCN(C)C1 (stereo not given)
T/C (dose: 12.5 mg/kg/injection, schedule: Q01DX009 (ip), vehicle: Klucel (hydroxypropylcellulose) (HPC)): 95 % of control
T/C (dose: 25.0 mg/kg/injection, schedule: Q01DX009 (ip), vehicle: Klucel (hydroxypropylcellulose) (HPC)): 94 % of control
T/C [17]: 96 % of control
T/C [18]: 94 % of control
T/C [19]: 89 % of control

O=C1C=C(O)C(=O)C(CC2=C(O)C(=O)C=C(O)C2=O)=C1O
T/C (dose: 12.5 mg/kg/injection, schedule: Q01DX005 (ip), vehicle: Klucel (hydroxypropylcellulose) (HPC)): 101 % of control and 90 % of control
T/C [29]: 86 % of control and 90 % of control and 95 % of control

Cc1ccc(/C=C/C(=O)C(C)CN(C)C)cc1C (stereo not given)
T/C [20]: 106 % of control
T/C [21]: 109 % of control

C/C=C/N1C(=O)C2C=CC1C(C(=O)OC)=C2C(=O)OC (stereo not given)
T/C [24]: 100 % of control
T/C [25]: 99 % of control
T/C [26]: 94 % of control
